US20100168097A1, “Non-Nucleoside Reverse Transcriptase Inhibitors” (priority 2005, published 2010)
Like-named read-outs stand apart in the source and are kept apart here.

Assays:
HIV-1 RT enzyme = HIV-1 RT enzyme (Human immunodeficiency virus type 1 group M subtype B, UniProt P04585); assay: Assay for inhibition of HIV reverse transcriptase (RNA-dependent DNA polymerase, SPA); assay type: biochemical; conditions: HIV-1 RT enzyme 1 nM, 1 hour at 37° C.
Description: (§1) 100 μL reaction mixtures were initiated with a combination of primer-template substrate (10 nM final concentration) and dNTPs (0.6 μM dNTPs, 0.75 μM [^3H]-dGTP). The heterodimeric nucleic acid substrate was generated by annealing the DNA primer pD500 (described in Shaw-Reid et al., J. Biol. Chem., 278: 2777-2780; obtained from Integrated DNA Technologies) to t500, a 500 nucleotide RNA template created by in vitro transcription (see Shaw-Reid et al., J. Biol. Chem., 278: 2777-2780). After 1 hour incubation at 37° C., reactions were quenched by 10 μL streptavidin scintillation proximity assay beads (10 mg/mL, from Amersham Biosciences) in 0.5 M EDTA, pH 8. Microtiter plates were incubated an additional 10 minutes at 37° C. prior to quantification via Topcount (Packard).

[1] = tested on: acute HIV infection of T-lymphoid cells; assay: Assay for inhibition of HIV replication (spread assay); assay type: cell-based; conditions: Human immunodeficiency virus 1; inhibition of HIV replication in T-lymphoid cells
Description: An assay for the inhibition of acute HIV infection of T-lymphoid cells (alternatively referred to herein as the “spread assay”) was conducted in accordance with Vacca, J. P. et al., Proc. Natl. Acad. Sci. USA 1994, 91: 4096. […] The compounds of Examples 2-4 and 22 were not tested.

[2] = molecular target: T1, mutant HIV reverse transcriptase, Y181C mutation (Human immunodeficiency virus type 1 group M subtype B, UniProt P04585, Y768C); assay: Analogous RT inhibition assay, Y181C mutant; assay type: biochemical
T1 construct: made in house
Description: as §1
(§2) Analogous assays were conducted substituting mutant HIV strains to determine the […] inhibition of compounds of the present invention against mutant HIV reverse transcriptase. In one strain the reverse transcriptase has the Y181C mutation and in the other strain the reverse transcriptase has the K103N mutation. The mutations were generated with the […] site-directed mutagenesis kit (Stratagene).

[3] = molecular target: T2, mutant HIV reverse transcriptase, K103N mutation (Human immunodeficiency virus type 1 group M subtype B, UniProt P04585, K690N); assay: Analogous RT inhibition assay, K103N mutant; assay type: biochemical; conditions: K103N mutant RT; tested up to 20 micromolar; read-out: IC50, K103N mutant assay
T2 construct: made in house
Description: as §1, §2

[4] = Y181C mutant RT, tested up to 20 micromolar, read-out: IC50, Y181C mutant assay

Structure (SMILES) | IC50 (HIV-1 RT enzyme) [nM] | IC95 [1] [nM] | IC50 [2] [nM] | IC50 [3] [nM] | IC50 [2, 4] [nM]
O=S(=O)(c1ccccc1)c1c(-c2ncc(-c3ccncc3)s2)[nH]c2ccc(Cl)cc12 [Example 2, 5-chloro-3-(phenylsulfonyl)-2-(5-pyridin-4-yl-1,3-thiazol-2-yl)-1H-indole] | 4000 |  |  |  | 
Cc1cnc(-c2[nH]c3ccc(Br)cc3c2S(=O)(=O)N2CCCC2)[nH]1 [Example 16, 5-Bromo-2-(4-methyl-1H-imidazol-2-yl)-3-(pyrrolidin-1-ylsulfonyl)-1H-indole] |  | < 1000 | < 1000 | < 1000 | 
O=S(=O)(c1ccccc1)c1c(-c2noc(-c3ccccc3F)n2)[nH]c2ccc(Cl)cc12 [Example 7, 5-chloro-2-[5-(2-fluorophenyl)-1,2,4-oxadiazol-3-yl]-3-(phenylsulfonyl)-1H-indole] |  | < 1000 |  | > 20000 | > 20000
COC(=O)c1cc(-c2c[nH]c(-c3[nH]c4ccc(Br)cc4c3S(=O)(=O)N3CCCC3)n2)ccc1O [Example 31, methyl 5-{2-[5-bromo-3-(pyrrolidin-1-ylsulfonyl)-1H-indol-2-yl]-1H-imidazol-4-yl}-2-hydroxybenzoate] |  | < 1000 | > 20000 | < 1000 | 
O=S(=O)(c1c(-c2nc(-c3ccc4c(c3)OCO4)c[nH]2)[nH]c2ccc(Br)cc12)N1CCCC1 [Example 30, 2-[4-(1,3-benzodioxol-5-yl)-1H-imidazol-2-yl]-5-bromo-3-(pyrrolidin-1-ylsulfonyl)-1H-indole] |  | < 1000 |  | < 1000 | 1000 to 20000
O=S(=O)(c1c(-c2nc([C@H](O)[C@@H](O)[C@@H](O)CO)c[nH]2)[nH]c2ccc(Br)cc12)N1CCCC1 [Example 18, (1S,2R,3S)-1-{2-[5-bromo-3-(pyrrolidin-1-ylsulfonyl)-1H-indol-2-yl}-1H-imidazol-4-yl}butane-1,2,3,4-tetrol] |  | < 1000 | 1000 to 20000 | < 1000 | 
Cc1nc(-c2[nH]c3ccc(Cl)cc3c2S(=O)(=O)c2ccccc2)no1 [Example 12, 5-chloro-2-(5-methyl-1,2,4-oxadiazol-3-yl)-3-(phenylsulfonyl)-1H-indole] |  | < 1000 |  | > 20000 | > 20000
O=S(=O)(c1c(-c2nc3ccccc3[nH]2)[nH]c2ccc(Br)cc12)N1CCCC1 [Example 17, 2-[5-bromo-3-(pyrrolidin-1-ylsulfonyl)-1H-indol-2-yl]-1H-benzimidazole] |  | < 1000 | < 1000 | < 1000 | 
